Assay results taken from US5223526A, “Pyrazole carboxanilide fungicides and use” (Monsanto Company, priority 1992, dated 1993).

Key:
Rhizoctonia solani = assay: Rice sheath blight; format: in vivo; design: scale not given here; settings: inoculated two days later, rated after 7 days, average of five plants; for Disease Control Rating at 0.02 mg/mL: foliage and soil sprayed with 0.02 mg/mL; for Disease Control Rating at 0.1 mg/mL: foliage and soil sprayed with 0.1 mg/mL; for Disease Control Rating at 0.5 mg/mL: foliage and soil sprayed with 0.5 mg/mL
Method in brief: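 Rice plants 11–15 days old had foliage and soil sprayed with 0.5, 0.1 or 0.02 mg/mL Compound A in water/acetone/Tween 20, then kept in flooded trays. Two days later, rice-grain Rhizoctonia solani inoculum went to plant bases; disease control scored versus untreated after 7 days at 25 °C, high humidity, averaging five plants.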

succinate dehydrogenase = target: T1, succinate dehydrogenase (Botrytis cinerea, UniProt A0A384J5E4+A0A384J8V8+A0A384JHJ5); assay: Enzyme inhibition: succinate dehydrogenase activity in Botrytis cinerea mitochondria (DCPIP reduction); format: biochemical; settings: concentration required to inhibit the rate of DCPIP reduction by 50%; Botrytis cinerea isolate Nick mitochondria; read-out: I50 (μM conc.)
T1 construct: succinate-DCPIP reductase assay with KCN
Method in brief: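 Crude mitochondria from Botrytis cinerea isolate Nick mycelia, prepared by bead-beating and differential centrifugation, started reactions. SDH activity followed as DCPIP reduction at 600 nm in 50 mM K-phosphate pH 7.2 with 1 mM KCN, 45 μM DCPIP, 17 mM succinate, 1% acetone. I50 from semilog inhibition plots, corrected for succinate-free rates.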

Botrytis cinerea [1] = assay: Eggplant grey mold; format: in vivo; design: scale not given here; settings: inoculated 24 h later, rated after 3-4 days; for Disease Control Rating at 20 ppm: eggplant sprayed with 20 ppm; for Disease Control Rating at 100 ppm: eggplant sprayed with 100 ppm; for Disease Control Rating at 500 ppm: eggplant sprayed with 500 ppm
Method in brief: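 Protective test: compound formulations (2:3 acetone:water, 0.5% Tween 20; 500, 100 or 20 ppm) sprayed on 14-18-day-old plants, with spore inoculum (4×10^6 spore/mL) applied a day later. Disease control rated on Botrytis lesions after 3-4 days at 23 °C and 100% humidity.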

Botrytis cinerea [2] = assay: Vine grey mold (grape berries); format: in vivo; settings: average of six berries, 7-10 days; for pest or weed control at 50 ppm: grape berries treated with 50 ppm, read-out: % DISEASE CONTROL 50 ppm; for pest or weed control at 200 ppm: grape berries treated with 200 ppm, read-out: % DISEASE CONTROL 200 ppm
Method in brief: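 Preventive berry test: compound at 50 or 200 ppm (acetone/water, 0.05% Tween 20) applied one day before inoculation with 10^6 spores/mL Botrytis conidia. After 7-10 days at 20 °C under 12 h light, infected surface area rated; disease control expressed as percent reduction from control mean; repeated-test values averaged.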

T1 sequence (A0A384J5E4 1-300): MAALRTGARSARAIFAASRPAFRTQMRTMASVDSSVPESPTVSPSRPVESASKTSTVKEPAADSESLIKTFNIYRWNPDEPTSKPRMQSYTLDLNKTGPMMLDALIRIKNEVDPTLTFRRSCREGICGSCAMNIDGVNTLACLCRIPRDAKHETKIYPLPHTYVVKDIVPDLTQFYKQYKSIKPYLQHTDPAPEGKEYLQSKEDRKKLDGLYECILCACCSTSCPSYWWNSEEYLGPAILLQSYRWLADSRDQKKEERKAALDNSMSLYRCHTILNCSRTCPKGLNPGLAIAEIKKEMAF
T1 sequence (A0A384J8V8 1-189): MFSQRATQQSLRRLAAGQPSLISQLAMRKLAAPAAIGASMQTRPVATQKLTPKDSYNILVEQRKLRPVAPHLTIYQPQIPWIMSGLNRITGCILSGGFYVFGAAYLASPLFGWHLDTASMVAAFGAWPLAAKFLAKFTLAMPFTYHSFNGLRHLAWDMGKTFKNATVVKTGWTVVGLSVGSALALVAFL
T1 sequence (A0A384JHJ5 1-192): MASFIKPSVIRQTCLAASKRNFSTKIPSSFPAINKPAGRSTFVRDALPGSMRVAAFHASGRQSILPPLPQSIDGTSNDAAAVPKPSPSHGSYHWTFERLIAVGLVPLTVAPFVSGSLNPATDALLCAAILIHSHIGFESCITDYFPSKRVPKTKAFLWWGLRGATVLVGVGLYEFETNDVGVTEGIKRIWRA
T1 sequence (A0A384K456 1-647 partner): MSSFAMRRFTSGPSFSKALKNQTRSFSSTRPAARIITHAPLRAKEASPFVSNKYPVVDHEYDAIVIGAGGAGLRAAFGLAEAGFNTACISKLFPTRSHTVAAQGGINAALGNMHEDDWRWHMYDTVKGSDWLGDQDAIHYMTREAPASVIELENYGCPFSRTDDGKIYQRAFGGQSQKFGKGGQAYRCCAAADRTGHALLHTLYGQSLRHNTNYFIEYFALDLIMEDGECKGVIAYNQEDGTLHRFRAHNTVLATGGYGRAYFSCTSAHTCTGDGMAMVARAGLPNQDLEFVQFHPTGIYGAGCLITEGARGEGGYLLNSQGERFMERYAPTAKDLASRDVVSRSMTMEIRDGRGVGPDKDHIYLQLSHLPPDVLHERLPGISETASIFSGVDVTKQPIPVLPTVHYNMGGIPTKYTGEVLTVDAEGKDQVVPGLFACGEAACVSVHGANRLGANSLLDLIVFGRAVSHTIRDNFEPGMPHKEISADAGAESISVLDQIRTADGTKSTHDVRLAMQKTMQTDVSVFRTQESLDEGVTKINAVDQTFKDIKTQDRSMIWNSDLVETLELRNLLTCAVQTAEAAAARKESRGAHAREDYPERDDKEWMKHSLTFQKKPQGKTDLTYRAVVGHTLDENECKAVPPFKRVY

SMILES: Cn1cc(C(=O)Nc2ccccc2C2CCCCCCC2)c(C(F)F)n1 [Example 24, 1H-pyrazole-4-carboxamide, N-(2-cyclooctylphenyl)-3-(difluoromethyl)-1-methyl-]
- Disease Control Rating at 0.02 mg/mL (Rhizoctonia solani): 3
- Disease Control Rating at 0.1 mg/mL (Rhizoctonia solani): 3
- Disease Control Rating at 0.5 mg/mL (Rhizoctonia solani): 3
- IC50 (succinate dehydrogenase): 0.0012 µM
- Disease Control Rating at 20 ppm (Botrytis cinerea [1]): 1
- Disease Control Rating at 100 ppm (Botrytis cinerea [1]): 2
- Disease Control Rating at 500 ppm (Botrytis cinerea [1]): 2
- pest or weed control at 50 ppm (Botrytis cinerea [2]): 87%
- pest or weed control at 200 ppm (Botrytis cinerea [2]): 100%

SMILES: Cn1cc(C(=O)Nc2ccccc2C2CCCCCCC2)c(C(F)(F)F)n1 [Example 25, 1H-pyrazole-4-carboxamide, N-(2-cyclooctylphenyl)-1-methyl-3-(trifluoromethyl)-]
- Disease Control Rating at 0.5 mg/mL (Rhizoctonia solani): 1
- IC50 (succinate dehydrogenase): 0.0011 µM
- Disease Control Rating at 20 ppm (Botrytis cinerea [1]): 1
- Disease Control Rating at 100 ppm (Botrytis cinerea [1]): 2
- Disease Control Rating at 500 ppm (Botrytis cinerea [1]): 2
- pest or weed control at 50 ppm (Botrytis cinerea [2]): 66%
- pest or weed control at 200 ppm (Botrytis cinerea [2]): 78%

SMILES: Cc1ccc(NC(=O)c2cn(C)nc2C(F)F)c(C2CCCCC2)c1 [Example 28, 1H-pyrazole-4-carboxamide, N-(2-cyclohexyl-4-methylphenyl)-3-(difluoromethyl)-1-methyl-]
- Disease Control Rating at 0.5 mg/mL (Rhizoctonia solani): 0
- IC50 (succinate dehydrogenase): 0.01 µM
- Disease Control Rating at 20 ppm (Botrytis cinerea [1]): 0
- Disease Control Rating at 100 ppm (Botrytis cinerea [1]): 1
- Disease Control Rating at 500 ppm (Botrytis cinerea [1]): 2
- pest or weed control at 50 ppm (Botrytis cinerea [2]): 37%
- pest or weed control at 200 ppm (Botrytis cinerea [2]): 77%

SMILES: Cc1ccc(NC(=O)c2cn(C)nc2C(F)(F)F)c(C2CCCCC2)c1 [Example 29, 1H-pyrazole-4-carboxamide, N-(2-cyclohexyl-4-methylphenyl)-1-methyl-3-(trifluoromethyl)-]
- Disease Control Rating at 0.5 mg/mL (Rhizoctonia solani): 0
- IC50 (succinate dehydrogenase): 0.036 µM
- Disease Control Rating at 500 ppm (Botrytis cinerea [1]): 0
- pest or weed control at 50 ppm (Botrytis cinerea [2]): 0%
- pest or weed control at 200 ppm (Botrytis cinerea [2]): 54%

SMILES: Cc1nn(C)c(C)c1C(=O)Nc1ccccc1C1CCCCC1 [Example 30, 1H-pyrazole-4-carboxamide, N-(2-cyclohexylphenyl)-1,3,5-trimethyl-]
- Disease Control Rating at 0.02 mg/mL (Rhizoctonia solani): 2
- Disease Control Rating at 0.1 mg/mL (Rhizoctonia solani): 3
- Disease Control Rating at 0.5 mg/mL (Rhizoctonia solani): 3
- IC50 (succinate dehydrogenase): 0.34 µM
- Disease Control Rating at 20 ppm (Botrytis cinerea [1]): 0
- Disease Control Rating at 100 ppm (Botrytis cinerea [1]): 2
- Disease Control Rating at 500 ppm (Botrytis cinerea [1]): 2
- pest or weed control at 50 ppm (Botrytis cinerea [2]): 75%
- pest or weed control at 200 ppm (Botrytis cinerea [2]): 59%

SMILES: Cc1cc(C)c(C2CCCC2)c(NC(=O)c2cn(C)nc2C(F)(F)F)c1 [Example 31, 1H-pyrazole-4-carboxamide, N-(2-cyclopentyl-3,5-dimethylphenyl)-1-methyl-3-(trifluoromethyl)-]
- Disease Control Rating at 0.5 mg/mL (Rhizoctonia solani): 1
- IC50 (succinate dehydrogenase): 0.068 µM
- Disease Control Rating at 20 ppm (Botrytis cinerea [1]): 0
- Disease Control Rating at 100 ppm (Botrytis cinerea [1]): 0
- Disease Control Rating at 500 ppm (Botrytis cinerea [1]): 0
- pest or weed control at 50 ppm (Botrytis cinerea [2]): 0%
- pest or weed control at 200 ppm (Botrytis cinerea [2]): 23%

SMILES: COc1ccc(C2CCCCC2)c(NC(=O)c2cn(C)nc2C(F)(F)F)c1 [Example 32, 1H-pyrazole-4-carboxamide, N-(2-cyclohexyl-5-methoxyphenyl)-1-methyl-3-(trifluoromethyl)-]
- Disease Control Rating at 0.5 mg/mL (Rhizoctonia solani): 0
- IC50 (succinate dehydrogenase): 0.11 µM
- Disease Control Rating at 20 ppm (Botrytis cinerea [1]): 0
- Disease Control Rating at 100 ppm (Botrytis cinerea [1]): 1
- Disease Control Rating at 500 ppm (Botrytis cinerea [1]): 2
- pest or weed control at 50 ppm (Botrytis cinerea [2]): 6%
- pest or weed control at 200 ppm (Botrytis cinerea [2]): 5%

SMILES: CC(=C1CCCC1)c1ccccc1NC(=O)c1cn(C)nc1C(F)(F)F [Example 33, 1H-pyrazole-4-carboxamide, N-[2-(1-cyclopentylideneethyl)phenyl]-1-methyl-3-(trifluoromethyl)-]
- Disease Control Rating at 0.02 mg/mL (Rhizoctonia solani): 1
- Disease Control Rating at 0.1 mg/mL (Rhizoctonia solani): 1
- Disease Control Rating at 0.5 mg/mL (Rhizoctonia solani): 3
- IC50 (succinate dehydrogenase): 0.0014 µM
- Disease Control Rating at 20 ppm (Botrytis cinerea [1]): 1
- Disease Control Rating at 100 ppm (Botrytis cinerea [1]): 1
- Disease Control Rating at 500 ppm (Botrytis cinerea [1]): 2
- pest or weed control at 50 ppm (Botrytis cinerea [2]): 34%
- pest or weed control at 200 ppm (Botrytis cinerea [2]): 41%

SMILES: C=C(c1ccccc1NC(=O)c1cn(C)nc1C(F)(F)F)C1CCCC1 [Example 34, 1H-pyrazole-4-carboxamide, N-[2-(1-cyclopentylethenyl)phenyl]-1-methyl-3-(trifluoromethyl)-]
- Disease Control Rating at 0.02 mg/mL (Rhizoctonia solani): 2
- Disease Control Rating at 0.1 mg/mL (Rhizoctonia solani): 3
- Disease Control Rating at 0.5 mg/mL (Rhizoctonia solani): 3
- IC50 (succinate dehydrogenase): 0.0059 µM
- Disease Control Rating at 20 ppm (Botrytis cinerea [1]): 0
- Disease Control Rating at 100 ppm (Botrytis cinerea [1]): 2
- Disease Control Rating at 500 ppm (Botrytis cinerea [1]): 2
- pest or weed control at 50 ppm (Botrytis cinerea [2]): 44%
- pest or weed control at 200 ppm (Botrytis cinerea [2]): 11%

SMILES: Cn1cc(C(=O)Nc2ccccc2OC2(C)CCCC2)c(C(F)F)n1 [Example 35, 1H-pyrazole-4-carboxamide, 3-(difluoromethyl)-1-methyl-N-[2-(1-methylcyclopentyloxy)phenyl]-]
- Disease Control Rating at 0.02 mg/mL (Rhizoctonia solani): 2
- Disease Control Rating at 0.1 mg/mL (Rhizoctonia solani): 3
- Disease Control Rating at 0.5 mg/mL (Rhizoctonia solani): 3
- IC50 (succinate dehydrogenase): 0.012 µM
- Disease Control Rating at 20 ppm (Botrytis cinerea [1]): 2
- Disease Control Rating at 100 ppm (Botrytis cinerea [1]): 3
- Disease Control Rating at 500 ppm (Botrytis cinerea [1]): 3
- pest or weed control at 50 ppm (Botrytis cinerea [2]): 42%
- pest or weed control at 200 ppm (Botrytis cinerea [2]): 46%

SMILES: Cn1cc(C(=O)Nc2ccccc2OC2(C)CCCC2)c(C(F)(F)F)n1 [Example 36, 1H-pyrazole-4-carboxamide, 1-methyl-N-[2-(1-methylcyclopentyloxy)phenyl]-3-(trifluoromethyl)-]
- Disease Control Rating at 0.5 mg/mL (Rhizoctonia solani): 0
- IC50 (succinate dehydrogenase): 0.021 µM
- Disease Control Rating at 500 ppm (Botrytis cinerea [1]): 0
- pest or weed control at 50 ppm (Botrytis cinerea [2]): 14%
- pest or weed control at 200 ppm (Botrytis cinerea [2]): 38%

SMILES: COc1cccc(NC(=O)c2cn(C)nc2C(F)(F)F)c1C1CCCCCCC1 [Example 37, 1H-pyrazole-4-carboxamide, N-(2-cyclooctyl-3-methoxyphenyl)-1-methyl-3-(trifluoromethyl)-]
- Disease Control Rating at 0.02 mg/mL (Rhizoctonia solani): 3
- Disease Control Rating at 0.1 mg/mL (Rhizoctonia solani): 3
- Disease Control Rating at 0.5 mg/mL (Rhizoctonia solani): 3
- IC50 (succinate dehydrogenase): 0.0048 µM
- Disease Control Rating at 20 ppm (Botrytis cinerea [1]): 0
- Disease Control Rating at 100 ppm (Botrytis cinerea [1]): 0
- Disease Control Rating at 500 ppm (Botrytis cinerea [1]): 2
- pest or weed control at 50 ppm (Botrytis cinerea [2]): 25%
- pest or weed control at 200 ppm (Botrytis cinerea [2]): 54%

SMILES: COc1ccc(C2CCCCCCC2)c(NC(=O)c2cn(C)nc2C(F)(F)F)c1 [Example 38, 1H-pyrazole-4-carboxamide, N-(2-cyclooctyl-5-methoxyphenyl)-1-methyl-3-(trifluoromethyl)-]
- Disease Control Rating at 0.02 mg/mL (Rhizoctonia solani): 0
- Disease Control Rating at 0.1 mg/mL (Rhizoctonia solani): 0
- Disease Control Rating at 0.5 mg/mL (Rhizoctonia solani): 1
- IC50 (succinate dehydrogenase): 0.014 µM
- Disease Control Rating at 20 ppm (Botrytis cinerea [1]): 0
- Disease Control Rating at 100 ppm (Botrytis cinerea [1]): 2
- Disease Control Rating at 500 ppm (Botrytis cinerea [1]): 2
- pest or weed control at 50 ppm (Botrytis cinerea [2]): 0%
- pest or weed control at 200 ppm (Botrytis cinerea [2]): 14%

SMILES: CSc1nn(C)cc1C(=O)Nc1ccccc1C1CCCCC1 [Example 39, 1H-pyrazole-4-carboxamide, N-(2-cyclohexylphenyl)-1-methyl-3-(methylthio)-]
- Disease Control Rating at 0.5 mg/mL (Rhizoctonia solani): 0
- IC50 (succinate dehydrogenase): 0.36 µM
- Disease Control Rating at 500 ppm (Botrytis cinerea [1]): 1
- pest or weed control at 50 ppm (Botrytis cinerea [2]): 50%
- pest or weed control at 200 ppm (Botrytis cinerea [2]): 55%

SMILES: Cn1cc(C(=O)Nc2ccccc2C=C2CCCCC2)c(C(F)(F)F)n1 [Example 40, 1H-pyrazole-4-carboxamide, N-[2-(cyclohexylidenemethyl)phenyl]-1-methyl-3-(trifluoromethyl)-]
- Disease Control Rating at 0.5 mg/mL (Rhizoctonia solani): 0
- IC50 (succinate dehydrogenase): 0.079 µM
- Disease Control Rating at 20 ppm (Botrytis cinerea [1]): 0
- Disease Control Rating at 100 ppm (Botrytis cinerea [1]): 0
- Disease Control Rating at 500 ppm (Botrytis cinerea [1]): 1
- pest or weed control at 50 ppm (Botrytis cinerea [2]): 2%
- pest or weed control at 200 ppm (Botrytis cinerea [2]): 3%
